The test system of data set [1] is molds and blue-stain fungi. Put plainly: In vitro activity against molds and blue-stain fungi, poison plate assay (MIC). It is filed as cell-based. The conditions noted are these: malt extract agar, complete inhibition. On the procedure:
The effect of the representative compounds on the growth of certain molds and blue-strain fungi were determined using a poison plate assay according to the following procedure: The solutions of the representative compounds prepared above were further diluted with sterile water to desired concentrations and poured into Petri dishes. Malt extract agar medium was then added aseptically to the Petri dishes and to Petri dishes containing no compound (controls). The Petri dishes were then shaken to provide a uniform distribution of the agar medium. Each Petri dish containing compound and each control Petri dish, was then inoculated with a fungus and incubated for a period of time sufficient to permit complete growth of the fungus in the respective control Petri dish. The Petri dishes containing compound were then examined to determine the amount of inhibition of fungi for each concentration of compound tested.

Data set [2] has as its system blue-stain fungi and molds. The data set can be described thus: Activity against blue-stain fungi and molds in a stick test (threshold concentrations). The settings on record: beech sticks, 22° C., 90% relative humidity. In short, it runs like this: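 Wood sticks soaked 3 h in compound serially diluted in 50% ethanol, dried, then inoculated with fungal or spore suspension. Incubated at 22° C and 90% relative humidity until untreated controls grew, then growth scored 0 (none) to 4 (>50% surface covered).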

The results in this text go back to patent US6372297B1, “Wood preservative oxathiazines” (Uniroyal Chemical Company, Inc., priority 1993, dated 2002).

Converted amounts (≈) assume the structure as drawn. Read-outs that look alike come from different tables or passages of the source.

As for `O=S1(=O)CCON=C1c1ccc(Cl)s1` [Compound 61, 3-(5-chloro-2-thienyl)-5,6-dihydro-1,4,2-oxathiazine-4,4-dioxide], the melting point was 113 to 114 °C. Moreover, in data set [1] (A. amstelodami, read-out: MIC (ppm) against A. amstelodami), the MIC amounted to 5 µg/mL (≈ 19.9 µM). Further, the minimal inhibitory concentration (MIC) in data set [1] (Aspergillus niger, A. niger, read-out: MIC (ppm) against A. niger) is less than 1 µg/mL. The MIC in data set [1] (Aspergillus versicolor, A. versicolor, read-out: MIC (ppm) against A. versicolor) was 2.5 µg/mL (≈ 9.93 µM). In addition, the MIC in data set [1] (Aureobasidium pullulans, A. pullulans, read-out: MIC (ppm) against A. pullulans) worked out at 10 µg/mL (≈ 39.7 µM). The MIC in data set [1] (C. pilifera, read-out: MIC (ppm) against C. pilifera) came to 2.5 µg/mL (≈ 9.93 µM). Also, the MIC in data set [1] (Cladosporium cladosporioides, C. cladosporioides, read-out: MIC (ppm) against C. cladosporioides) was 10 µg/mL (≈ 39.7 µM). For the same compound, in data set [1] (Fusarium solani, F. solani, read-out: MIC (ppm) against F. solani), the MIC is 5 µg/mL (≈ 19.9 µM). Moreover, the MIC in data set [1] (Geotrichum candidum, G. candidum, read-out: MIC (ppm) against G. candidum) is 10 µg/mL (≈ 39.7 µM). Further, the MIC in data set [1] (P. purpurogenum, read-out: MIC (ppm) against P. purpurogenum) is 5 µg/mL (≈ 19.9 µM). The MIC in data set [1] (P. violacea, read-out: MIC (ppm) against P. violacea) was 25 µg/mL (≈ 99.3 µM). In addition, the MIC in data set [1] (Paecilomyces variotii, P. variotii, read-out: MIC (ppm) against P. variotii) turned out to be 5 µg/mL (≈ 19.9 µM). For the same compound, the MIC in data set [1] (S. atra, read-out: MIC (ppm) against S. atra) stood at 2.5 µg/mL (≈ 9.93 µM). The MIC in data set [1] (S. entoxylina, read-out: MIC (ppm) against S. entoxylina) was 10 µg/mL (≈ 39.7 µM). The MIC in data set [1] (Trichoderma viride, T. viride, read-out: MIC (ppm) against T. viride) amounted to 10 µg/mL (≈ 39.7 µM). In data set [1] (U. atrum, read-out: MIC (ppm) against U. atrum), the MIC is 10 µg/mL (≈ 39.7 µM). Also, the “Threshold concentration (ppm), A. niger, score 0” value in data set [2] (A. niger, minimum concentration to obtain score 0) is on record as less than 250 ppm. Moreover, in data set [2] (A. niger, minimum concentration to obtain score 1-2), the “Threshold concentration (ppm), A. niger, score 1-2” value is less than 250 ppm. The “Threshold concentration (ppm), Aureobasidium, score 0” value in data set [2] (Aureobasidium, minimum concentration to obtain score 0) is greater than 1000 ppm. Moreover, the “Threshold concentration (ppm), Aureobasidium, score 1-2” value in data set [2] (Aureobasidium, minimum concentration to obtain score 1-2) is 250-500 ppm. Also, the “Threshold concentration (ppm), Sclerophoma, score 0” value in data set [2] (Sclerophoma, minimum concentration to obtain score 0) is 100 ppm. For the same compound, the “Threshold concentration (ppm), Sclerophoma, score 1-2” value in data set [2] (Sclerophoma, minimum concentration to obtain score 1-2) is less than 50 ppm. Besides, in data set [2] (Trichoderma, minimum concentration to obtain score 0), the “Threshold concentration (ppm), Trichoderma, score 0” value was 2500 ppm. Further, in data set [2] (Trichoderma, minimum concentration to obtain score 1-2), the “Threshold concentration (ppm), Trichoderma, score 1-2” value is listed as 1000-2500 ppm.

As a reminder, the MIC is the smallest concentration in the dilution series that meets the test's criterion for growth inhibition. Broadly, the melting point is the temperature, or range, at which the solid turns liquid.
